According to ChEMBL document CHEMBL1201862, “PubChem BioAssay data set” (2004):
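Five compound concentrations were applied to cells in 96-well plates for 48 hours; endpoints were derived by simple linear interpolation of the resulting dose-response curve. Abbreviation: GI50, concentration required for 50% inhibition of growth.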 Activity calls are given as the source filed them. No stated cut-off is given here; in the data, active = GI50 up to about 1.1 µM and inactive = higher.

Assays:
Assay in all cases: DTP human tumour cell line panel, 48 h
SNB-19 = system: SNB-19
IGROV-1 = system: IGROV-1
HOP-92 = system: HOP-92
RXF 393 = system: RXF 393
CAKI-1 = system: CAKI-1
K562 = system: K562
HT-29 = system: HT-29
UACC-62 = system: UACC-62
M14 = system: M14
OVCAR-8 = system: OVCAR-8
COLO 205 = system: COLO 205
786-0 = system: 786-0
HOP-18 = system: HOP-18
LOX IMVI = system: LOX IMVI
OVCAR-3 = system: OVCAR-3
UACC-257 = system: UACC-257
CCRF-CEM = system: CCRF-CEM
ACHN = system: ACHN
Malme-3M = system: Malme-3M
NCI-H226 = system: NCI-H226
SK-MEL-5 = system: SK-MEL-5
DMS-273 = system: DMS-273
OVCAR-5 = system: OVCAR-5
M19-MEL = system: M19-MEL
HL-60 = system: HL-60
RXF 631 = system: RXF 631
NCI-H23 = system: NCI-H23
LXFL 529 = system: LXFL 529
NCI-H460 = system: NCI-H460
SF-539 = system: SF-539
SN12C = system: SN12C
NCI-H522 = system: NCI-H522
TK-10 = system: TK-10
MOLT-4 = system: MOLT-4
EKVX = system: EKVX
SK-MEL-2 = system: SK-MEL-2
SK-OV-3 = system: SK-OV-3
U-251 = system: U-251
HCT-15 = system: HCT-15
SW-620 = system: SW-620
KM12 = system: KM12
KM-20L2 = system: KM-20L2
OVCAR-4 = system: OVCAR-4
A549 = system: A549
UO-31 = system: UO-31
XF498 = system: XF498
DLD-1 = system: DLD-1
RPMI-8226 = system: RPMI-8226
SF-295 = system: SF-295
A498 = system: A498
SR = system: SR
HOP-62 = system: HOP-62
HCT-116 = system: HCT-116
SF-268 = system: SF-268
DMS-114 = system: DMS-114
SK-MEL-28 = system: SK-MEL-28
HCC 2998 = system: HCC 2998

## COc1ccc(N(CC(=O)O)S(=O)(=O)c2ccccc2)cc1
SNB-19
  GI50: > 100 µM (inactive)
IGROV-1
  GI50: > 100 µM (inactive)
HOP-92
  GI50: > 100 µM (inactive)
RXF 393
  GI50: > 100 µM (inactive)
CAKI-1
  GI50: > 100 µM (inactive)
K562
  GI50: > 100 µM (inactive)
HT-29
  GI50: > 100 µM (inactive)
UACC-62
  GI50: > 100 µM (inactive)
M14
  GI50: > 100 µM (inactive)
OVCAR-8
  GI50: > 100 µM (inactive)
COLO 205
  GI50: > 100 µM (inactive)
786-0
  GI50: > 100 µM (inactive)
HOP-18
  GI50: > 100 µM (inactive)
LOX IMVI
  GI50: > 100 µM (inactive)
OVCAR-3
  GI50: > 100 µM (inactive)
UACC-257
  GI50: > 100 µM (inactive)
CCRF-CEM
  GI50: > 100 µM (inactive)
ACHN
  GI50: > 100 µM (inactive)
Malme-3M
  GI50: > 100 µM (inactive)
NCI-H226
  GI50: > 100 µM (inactive)
SK-MEL-5
  GI50: > 100 µM (inactive)
DMS-273
  GI50: > 100 µM (inactive)
OVCAR-5
  GI50: > 100 µM (inactive)
M19-MEL
  GI50: > 100 µM (inactive)
HL-60
  GI50: > 100 µM (inactive)
RXF 631
  GI50: > 100 µM (inactive)
NCI-H23
  GI50: > 100 µM (inactive)
LXFL 529
  GI50: > 100 µM (inactive)
NCI-H460
  GI50: > 100 µM (inactive)
SF-539
  GI50: > 100 µM (inactive)
SN12C
  GI50: > 100 µM (inactive)
NCI-H522
  GI50: > 100 µM (inactive)
TK-10
  GI50: > 100 µM (inactive)
MOLT-4
  GI50: > 100 µM (inactive)
EKVX
  GI50: > 100 µM (inactive)
SK-MEL-2
  GI50: > 100 µM (inactive)
SK-OV-3
  GI50: > 100 µM (inactive)
U-251
  GI50: > 100 µM (inactive)
HCT-15
  GI50: > 100 µM
SW-620
  GI50: > 100 µM (inactive)
KM12
  GI50: > 100 µM (inactive)
KM-20L2
  GI50: > 100 µM (inactive)
OVCAR-4
  GI50: > 100 µM (inactive)
A549
  GI50: > 100 µM (inactive)
UO-31
  GI50: > 100 µM (inactive)
XF498
  GI50: > 100 µM (inactive)
DLD-1
  GI50: > 100 µM (inactive)
RPMI-8226
  GI50: > 100 µM (inactive)
SF-295
  GI50: > 100 µM (inactive)
A498
  GI50: > 100 µM (inactive)

## COC(=O)N/N=C/C(=C/Nc1ccccc1)[N+](=O)[O-]
SNB-19
  GI50: > 100 µM (inactive)
IGROV-1
  GI50: > 100 µM (inactive)
HOP-92
  GI50: 21 µM (inactive)
RXF 393
  GI50: > 100 µM (inactive)
K562
  GI50: > 100 µM (inactive)
HT-29
  GI50: > 100 µM (inactive)
UACC-62
  GI50: 46.2 µM (inactive)
M14
  GI50: > 100 µM (inactive)
OVCAR-8
  GI50: > 100 µM (inactive)
COLO 205
  GI50: > 100 µM (inactive)
786-0
  GI50: > 100 µM (inactive)
SR
  GI50: > 100 µM (inactive)
HOP-18
  GI50: > 100 µM (inactive)
HOP-62
  GI50: > 100 µM (inactive)
LOX IMVI
  GI50: > 100 µM (inactive)
OVCAR-3
  GI50: > 100 µM (inactive)
UACC-257
  GI50: > 100 µM (inactive)
CCRF-CEM
  GI50: > 100 µM (inactive)
ACHN
  GI50: > 100 µM (inactive)
SK-MEL-5
  GI50: > 100 µM (inactive)
DMS-273
  GI50: > 100 µM (inactive)
M19-MEL
  GI50: > 100 µM (inactive)
HCT-116
  GI50: > 100 µM (inactive)
HL-60
  GI50: > 100 µM (inactive)
RXF 631
  GI50: > 100 µM (inactive)
NCI-H23
  GI50: > 100 µM (inactive)
SF-268
  GI50: > 100 µM (inactive)
LXFL 529
  GI50: > 100 µM (inactive)
NCI-H460
  GI50: > 100 µM (inactive)
SN12C
  GI50: > 100 µM (inactive)
DMS-114
  GI50: > 100 µM (inactive)
SK-MEL-28
  GI50: > 100 µM (inactive)
NCI-H522
  GI50: 86.7 µM (inactive)
TK-10
  GI50: > 100 µM (inactive)
MOLT-4
  GI50: > 100 µM (inactive)
EKVX
  GI50: > 100 µM (inactive)
HCC 2998
  GI50: > 100 µM (inactive)
SK-OV-3
  GI50: > 100 µM (inactive)
U-251
  GI50: > 100 µM (inactive)
HCT-15
  GI50: 59 µM
SW-620
  GI50: > 100 µM (inactive)
KM-20L2
  GI50: > 100 µM (inactive)
OVCAR-4
  GI50: > 100 µM (inactive)
A549
  GI50: > 100 µM (inactive)
UO-31
  GI50: > 100 µM (inactive)
XF498
  GI50: > 100 µM (inactive)
DLD-1
  GI50: > 100 µM (inactive)
RPMI-8226
  GI50: > 100 µM (inactive)
